{"source": "ChEMBL document CHEMBL6153028", "about": "“Understanding the synergistic sensitization of natural products and antibiotics: An effective strategy to combat MRSA” (2025)", "assay_type_in_all_cases": "functional", "key": {"Staphylococcus aureus [1]": {"tested_on": "Staphylococcus aureus", "experiment": "Antibacterial activity against methicillin-resistant Staphylococcus aureus ATCC 33592 assessed as reduction in bacterial growth measured for 24 hrs by CLSI protocol based two-fold serial dilution method"}, "Staphylococcus aureus [2]": {"tested_on": "Staphylococcus aureus", "experiment": "Synergistic antimicrobial activity against methicillin resistant Staphylococcus aureus assessed as fractional inhibitory concentration index incubated for 24 hrs in presence of Oxacillin by checkerboard assay"}, "Staphylococcus aureus [3]": {"tested_on": "Staphylococcus aureus", "experiment": "Synergistic antibacterial activity against methicillin-resistant Staphylococcus aureus assessed as fractional inhibitory concentration index incubated for 24 hrs in presence of Nafcillin by checkerboard assay"}, "Staphylococcus aureus [4]": {"tested_on": "Staphylococcus aureus", "experiment": "Synergistic antibacterial activity against methicillin-resistant Staphylococcus aureus assessed as fractional inhibitory concentration index incubated for 24 hrs in presence of cefazolin by checkerboard assay"}, "Staphylococcus aureus [5]": {"tested_on": "Staphylococcus aureus", "experiment": "Synergistic antimicrobial activity against methicillin-resistant Staphylococcus aureus assessed as fractional inhibitory concentration index in presence of amoxicillin"}, "Staphylococcus aureus [6]": {"tested_on": "Staphylococcus aureus", "experiment": "Synergistic antibacterial activity against methicillin-resistant Staphylococcus aureus assessed as fractional inhibitory concentration index in presence of cefoxitin"}}}
{"smiles": "Oc1cc(O)c2c(c1)O[C@H](c1ccc(O)c(O)c1)[C@@H](O)C2", "note": "[CIANIDANOL]", "values": [{"measurement": "MIC", "setting": "Staphylococcus aureus [1]", "value": "> 1020", "unit": "µg/mL"}]}
{"smiles": "Cc1cc(O)c2c(=O)c3c(O)cc(O)c4c5c(O)cc(O)c6c(=O)c7c(O)cc(C)c8c1c2c(c34)c(c78)c65", "note": "[HYPERICIN]", "values": [{"measurement": "fractional inhibitory concentration index (FICI)", "setting": "Staphylococcus aureus [2]", "value": 0.1}, {"measurement": "fractional inhibitory concentration index (FICI)", "setting": "Staphylococcus aureus [3]", "value": 0.19}, {"measurement": "fractional inhibitory concentration index (FICI)", "setting": "Staphylococcus aureus [4]", "value": 0.19}]}
{"smiles": "CC1(C)CCC2=C(O1)c1ccccc1C(=O)C2=O", "note": "[LAPACHONE]", "values": [{"measurement": "fractional inhibitory concentration index (FICI)", "setting": "Staphylococcus aureus [5]", "value": 0.07}, {"measurement": "fractional inhibitory concentration index (FICI)", "setting": "Staphylococcus aureus [6]", "value": 0.25}]}
